Laboratory results published in patent publication US20150225790A1, “METHODS FOR IDENTIFYING SUBJECTS WITH AN INCREASED LIKELIHOOD OF RESPONDING TO CCR1 ANTAGONIST” (BRISTOL-MYERS SQUIBB COMPANY, priority 2012, published 2015).

Experiments:
KYNU = experiment: Whole genome mRNA profiling, whole blood + RANTES: KYNU; type: cell-based, human; settings: probe 217388_s_at; healthy volunteer whole blood, RANTES 100 nM +/- BMS-817399 1 uM
Procedure: (§1) Gene profiling experiments to identify genes downstream of CCR1 signaling (via CCR1 ligand stimulation) were performed. It was shown that these genes were blocked following treatment with a CCR1 antagonist. Whole blood from three healthy volunteers was treated with RANTES (100 nM, CCL5), in the presence and absence of the CCR1 antagonist (50 nM, 1 μM) for 4 and 24 hours. Following the incubation, mRNA was isolated for whole genome mRNA profiling.
(§2) Lyophilized human recombinant CCR1 ligand RANTES (Peprotech, Rocky Hill, N.J.) was reconstituted to 100 μM per the manufacturer's instructions. BMS-817399 was reconstituted to 10 mM in 100% DMSO (Sigma-Aldrich, St. Louis Mo.) and further diluted 1:50 in 10% DMSO. […] RNA quantity and quality were assessed on the ND-8000 spectrophotometer (Thermo Scientific, Wilmington, Del.) and RNA integrity was assessed on the AGILENT® 2100 Bioanalyzer using the RNA 6000 Nano Lab Chip kit (Agilent Technologies, Santa Clara, Calif.).
(§3) RNA samples with yields ≧1.5 μg and RIN (RNA integrity number) values of 6.5 and above were randomized in 96-well plates and normalized to a concentration of 250 ng/μL in preparation for microarray analysis. […] Data obtained from the microarray analysis were analyzed by statisticians internal to Bristol-Myers Squibb. […]

FCN1 = experiment: Whole genome mRNA profiling, whole blood + RANTES: FCN1; type: cell-based, human; settings: probe 206237_at; healthy volunteer whole blood, RANTES 100 nM +/- BMS-817399 1 uM; 24 hours
Procedure: as §1, §2, §3

MERTK [1] = experiment: In vitro treatment of RA patient whole blood, qRT-PCR: MERTK; type: cell-based, human; settings: 500 nM CCR1 antagonist, 3 hours
Procedure: (§4) FIGS. 3A-B show relative CLEC5A and MERTK expression levels in RA patient blood. Whole blood from RA patients was shipped overnight and treated with 500 nM CCR1 antagonist for 3 hours. RNA was isolated and analyzed by qRT-PCR. Expression levels are represented as mRNA levels relative to the untreated control samples as a function of treatment condition. Percent inhibition of gene expression by the investigational drug was calculated and is represented as “% change”. C-reactive protein (CRP) levels of subjects, as determined by Bioreclamation, are listed as well.
(§5) Whole blood, collected from RA patients, was stimulated with 500 nM of a CCR1 antagonist for 3 hours at 37° C. After the incubation, RNA was isolated and the gene expression levels of CLEC5A, MERTK, and the endogenous control HPRT1 were assessed by qRT-PCR for each subject. CLEC5A and MERTK mRNA levels (normalized to that of HPRT1) were calculated relative to the untreated control sample for each patient.
(§6) Whole blood, drawn in EDTA VACUTAINER® tubes from RA patients, was obtained from Bioreclamation for in vitro treatment with BMS-817399 and subsequent qRT-PCR analysis. […] Serum CRP and whole blood ESR levels of qualified subjects were also assessed by Bioreclamation. […] Data were analyzed in the SDS software for relative quantitation. […]

CLEC5A [2] = experiment: Phase 1 trial, ex vivo RANTES-stimulated whole blood qRT-PCR: CLEC5A; type: in vivo, human; settings: healthy volunteers, single and multiple oral doses; ex vivo 25 nM RANTES, 2 hours, 37° C.
Procedure: (§7) FIGS. 2A-D show relative CLEC5A and MERTK expression levels in a Phase I clinical trial. Healthy volunteers were treated with single or multiple doses of a CCR1 antagonist through oral administration at various dose levels; blood samples from subjects were treated ex vivo with CCR1 ligand RANTES. RNA was isolated and analyzed by qRT-PCR. Expression levels are represented as (negative) change in median CT (cycle threshold) value between the target (CLEC5A or MERTK) and the endogenous control (GAPDH) as a function of time.
(§8) In this study (Example 2), healthy volunteers were treated with single or multiple doses of a CCR1 antagonist through oral administration at various dose levels. Pharmacodynamic effects of the compound were assessed using an ex vivo functional assay at various times post dosing. For the assay, whole blood was collected at indicated time points following dosing with the CCR1 antagonist and stimulated ex vivo for 2 hours at 37° C. with 25 nM recombinant human RANTES. After the incubation, RNA was isolated and CLEC5A and MERTK mRNA levels, relative to the GAPDH housekeeping gene, were measured by qRT-PCR in triplicate at each time-point for each subject. The median cycle time (CT) for each gene was evaluated and changes in the CT values (ΔCT) were calculated by subtracting the median GAPDH CT value from the corresponding median values for CLEC5A CT or MERTK CT. […]

MERTK [3] = experiment: Phase 1 trial, ex vivo RANTES-stimulated whole blood qRT-PCR: MERTK; type: in vivo, human; settings: healthy volunteers, single and multiple oral doses; ex vivo 25 nM RANTES, 2 hours, 37° C.
Procedure: as §7, §8

MERTK [4] = experiment: Whole genome mRNA profiling, whole blood + RANTES: MERTK; type: cell-based, human; settings: probe 206028_s_at; healthy volunteer whole blood, RANTES 100 nM +/- BMS-817399 1 uM; 4 hours
Procedure: as §1, §2, §3

CLEC5A [5] = experiment: In vitro treatment of RA patient whole blood, qRT-PCR: CLEC5A; type: cell-based, human; settings: 500 nM CCR1 antagonist, 3 hours
Procedure: as §4, §5, §6

CSPG2 = experiment: Whole genome mRNA profiling, whole blood + RANTES: CSPG2; type: cell-based, human; settings: probe 204620_s_at; healthy volunteer whole blood, RANTES 100 nM +/- BMS-817399 1 uM
Procedure: as §1, §2, §3

PHLDA2 = experiment: Whole genome mRNA profiling, whole blood + RANTES: PHLDA2; type: cell-based, human; settings: probe 209803_s_at; healthy volunteer whole blood, RANTES 100 nM +/- BMS-817399 1 uM
Procedure: as §1, §2, §3

FPRL2 = experiment: Whole genome mRNA profiling, whole blood + RANTES: FPRL2; type: cell-based, human; settings: probe 214560_at; healthy volunteer whole blood, RANTES 100 nM +/- BMS-817399 1 uM; 4 hours
Procedure: as §1, §2, §3

CLEC5A [6] = experiment: Whole genome mRNA profiling, whole blood + RANTES: CLEC5A; type: cell-based, human; settings: probe 219890_at; healthy volunteer whole blood, RANTES 100 nM +/- BMS-817399 1 uM; 4 hours
Procedure: as §1, §2, §3

SPP1 = experiment: Whole genome mRNA profiling, whole blood + RANTES: SPP1; type: cell-based, human; settings: probe 209875_s_at; healthy volunteer whole blood, RANTES 100 nM +/- BMS-817399 1 uM; 24 hours
Procedure: as §1, §2, §3

[7] = Phase 1 trial in healthy human subjects: safety; type: in vivo
Source text: Current standard of care for the treatment of RA includes disease-modifying anti-rheumatic drugs that decrease immune activation and subsequent inflammation. However, a large proportion of patients are non-responsive to these medications, thus resulting in progression of disease symptoms. […] Further, identification of predictive biomarkers may allow for patient stratification in future clinical trials. Identification of patients most likely to respond favorably to the CCR1 antagonist may provide justification for use of a CCR1 antagonist earlier in the course of treatment, potentially preventing extensive structural damage of the joints.

TLR8 = experiment: Whole genome mRNA profiling, whole blood + RANTES: TLR8; type: cell-based, human; settings: probe 220832_at; healthy volunteer whole blood, RANTES 100 nM +/- BMS-817399 1 uM
Procedure: as §1, §2, §3

CD86 = experiment: Whole genome mRNA profiling, whole blood + RANTES: CD86; type: cell-based, human; settings: probe 210895_s_at; healthy volunteer whole blood, RANTES 100 nM +/- BMS-817399 1 uM
Procedure: as §1, §2, §3

## CC(C)[C@@H](NC(=O)NCC(C)(C)O)C(=O)N1CC[C@](O)(c2ccc(Cl)cc2)C(C)(C)C1 [BMS-817399]
KYNU
  KYNU (kynureninase) expression, Fold Change: −2.32
  KYNU (kynureninase) expression, Mean: −1.214
FCN1
  FCN1 (ficolin 1) expression, Fold Change: −2.234
  FCN1 (ficolin 1) expression, Mean: −1.16
MERTK [1]
  decrease of MERTK expression levels relative to the untreated control samples: more than 30%
CLEC5A [2]
  inhibition of CLEC5A gene expression in whole blood: rapid and potent inhibition
MERTK [3]
  inhibition of MERTK gene expression in whole blood: rapid and potent inhibition
MERTK [4]
  MERTK expression, Fold Change: −2.417
  MERTK expression, Mean: −1.274
CLEC5A [5]
  decrease of CLEC5A expression levels relative to the untreated control samples: more than 30%
CSPG2
  CSPG2 (versican) expression, Fold Change: −4.39
  CSPG2 (versican) expression, Mean: −2.134
PHLDA2
  PHLDA2 expression, Fold Change: −2.252
  PHLDA2 expression, Mean: −1.171
FPRL2
  FPRL2 expression, Fold Change: −3.571
  FPRL2 expression, Mean: −1.836
CLEC5A [6]
  CLEC5A expression, Fold Change: −5.123
  CLEC5A expression, Mean: −2.357
SPP1
  SPP1 (osteopontin) expression, Fold Change: −6.547
  SPP1 (osteopontin) expression, Mean: −2.711
[7]
  safety profile: acceptable safety profile
TLR8
  TLR8 expression, Fold Change: −2.232
  TLR8 expression, Mean: −1.158
CD86
  CD86 expression, Fold Change: −2.559
  CD86 expression, Mean: −1.356
